ChEMBL document CHEMBL1201862, “PubChem BioAssay data set” (2004)
“And” between values parts separate entries of the source, which are not always exact repeats. Identical values can stand only once.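 Dose response: 5 concentrations. Exposure: 48 h. Format: 96-well plates. Endpoint: linear interpolation; highest concentration if not reached. The concentration for 50% growth inhibition is given as GI50.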 The source made the active and inactive calls. Rule as the data show it: active = GI50 up to about 1.1 µM and inactive = higher.

How the values were obtained:
Test in all cases: growth of human tumour cells (NCI), 48 h
[1] = system: CCRF-CEM
[2] = system: DU-145
[3] = system: HL-60
[4] = system: HOP-62
[5] = system: IGROV-1
[6] = system: MDA-MB-435
[7] = system: MOLT-4
[8] = system: NCI-H226
[9] = system: NCI-H23
[10] = system: OVCAR-4
[11] = system: OVCAR-5
[12] = system: PC-3
[13] = system: SF-539
[14] = system: SN12C
[15] = system: SR
[16] = system: T47D
[17] = system: TK-10
[18] = system: UO-31
[19] = system: MDA-MB-231
[20] = system: SK-MEL-28

Row | SMILES | GI50 [1] | GI50 [2] | GI50 [3] | GI50 [4] | GI50 [5] | GI50 [6] | GI50 [7] | GI50 [8] | GI50 [9] | GI50 [10] | GI50 [11] | GI50 [12] | GI50 [13] | GI50 [14] | GI50 [15] | GI50 [16] | GI50 [17] | GI50 [18] | GI50 [19] | GI50 [20]
1 | O=S(=O)(O)c1ccc2cc(/N=N/c3c(O)ccc4ccccc34)ccc2c1 | > 100 µM (inactive) | > 100 µM (inactive) | > 100 µM (inactive) | > 100 µM (inactive) | > 100 µM (inactive) | > 100 µM (inactive) | > 100 µM (inactive) | > 100 µM (inactive) | > 100 µM (inactive) | > 100 µM (inactive) | > 100 µM (inactive) | > 100 µM (inactive) | > 100 µM (inactive) | > 100 µM (inactive) | > 100 µM (inactive) | > 100 µM (inactive) | > 100 µM (inactive) | > 100 µM (inactive) | – | –
2 | COc1ccc(C2CC(c3cc4c(C)c(C(=O)c5ccccc5)oc4cc3O)=Nc3ccccc3S2)cc1OC (stereo not drawn) | 70.8 µM (inactive) | – | 9.82 µM (inactive) | – | 55.8 µM (inactive) | 0.733 µM (active) | > 100 µM (inactive) | > 100 µM (inactive) | 52.7 µM (inactive) | – | > 100 µM (inactive) | > 100 µM (inactive) | > 50 µM (inactive) | > 100 µM (inactive) | 52.5 µM (inactive) | – | > 77.1 µM (inactive) | > 100 µM (inactive) | > 87.3 µM (inactive) | > 100 µM (inactive)
3 | O=C(O)/C=C/c1ccc(O)c(O)c1 [CAFFEIC ACID] | > 57.5 µM (inactive) | > 100 µM (inactive) | > 100 µM (inactive) | > 100 µM (inactive) | > 100 µM (inactive) | – | > 100 µM (inactive) | > 100 µM (inactive) | > 100 µM (inactive) | > 100 µM (inactive) | > 100 µM (inactive) | > 100 µM (inactive) | > 100 µM (inactive) | > 100 µM (inactive) | – | – | > 100 µM (inactive) | 77.6 µM (inactive) | – | > 100 µM (inactive)
4 | O=C(Sc1n[nH]c(=O)[nH]c1=O)c1cccc2nc3ccccc3nc12 | > 100 µM (inactive) | 10.6 µM (inactive) | > 100 µM (inactive) | – | > 100 µM (inactive) | 13.7 µM (inactive) | > 100 µM (inactive) | 34.4 µM (inactive) | 3.78 µM (inactive) | 76.9 µM (inactive) | > 100 µM (inactive) | – | 35.6 µM (inactive) | 34.3 µM (inactive) | > 100 µM (inactive) | > 100 µM (inactive) | > 100 µM (inactive) | – | > 100 µM (inactive) | 30.7 µM (inactive)
5 | CC(C)(C)OC(=O)N[C@H]1CC2(C=C(Cl)C(=O)C(Cl)=C2)OC1=O | 1.38 µM (inactive) | 27.9 µM (inactive) | 2.13 µM (inactive) | > 58.9 µM (inactive) | 18.7 µM (inactive) | – | 2.48 µM (inactive) | > 59.7 µM (inactive) | 17.3 µM (inactive) | 16.3 µM (inactive) | 19.5 µM (inactive) | 17.1 µM (inactive) | 21.1 µM (inactive) | 18.5 µM (inactive) | 1.93 µM (inactive) | 14.9 µM (inactive) | 17.5 µM (inactive) | 18.8 µM (inactive) | 17.1 µM (inactive) | 11.4 µM (inactive)
6 | O=C(CC(C(=O)c1ccoc1)c1ccco1)c1ccco1 (stereo not drawn) | 24.2 µM (inactive) | > 100 µM (inactive) | > 100 µM (inactive) | > 100 µM (inactive) | > 100 µM (inactive) | 30 µM (inactive) | > 100 µM (inactive) | > 100 µM (inactive) | 98.4 µM (inactive) | 43.1 µM (inactive) | > 100 µM (inactive) | – | > 100 µM (inactive) | > 100 µM (inactive) | 85.7 µM (inactive) | > 100 µM (inactive) | > 100 µM (inactive) | 65.9 µM (inactive) | 18.6 µM (inactive) | 37.9 µM (inactive)
7 | CC1=CC(=O)CC2(C)CCC(C(C)CC(=O)CC(C)C)CC12OO (stereo not drawn) | 20.7 µM (inactive) and 19.6 µM (inactive) | 18 µM (inactive) and 16 µM (inactive) | 1.83 µM (inactive) and 1.87 µM (inactive) | – | 15 µM (inactive) and 20 µM (inactive) | 17.5 µM (inactive) and 18.3 µM (inactive) | 14.8 µM (inactive) and 15.8 µM (inactive) | 18.3 µM (inactive) and 18.7 µM (inactive) | 16.5 µM (inactive) and 19.9 µM (inactive) | 27.7 µM (inactive) and 16 µM (inactive) | 19.9 µM (inactive) and 19.4 µM (inactive) | 14.3 µM (inactive) and 15.7 µM (inactive) | 16.4 µM (inactive) and 15.2 µM (inactive) | 17.6 µM (inactive) and 18.7 µM (inactive) | 18.5 µM (inactive) and 20.6 µM (inactive) | – | 19.3 µM (inactive) and 18.7 µM (inactive) | 19.9 µM (inactive) and 16.2 µM (inactive) | 15.1 µM (inactive) and 18.5 µM (inactive) | 18.5 µM (inactive) and 15.2 µM (inactive)
8 | CC(C)(CN1CCCCC1)C(=O)CC(SCCS(=O)(=O)O)c1ccc(Cl)c(Cl)c1 (stereo not drawn) | 2.07 µM (inactive) | 11.4 µM (inactive) | 3.46 µM (inactive) | 6.47 µM (inactive) | 4.4 µM (inactive) | 2.21 µM (inactive) | 3.61 µM (inactive) | 20 µM (inactive) | 3.72 µM (inactive) | 3.52 µM (inactive) | 3.78 µM (inactive) | 4.94 µM (inactive) | 2.65 µM (inactive) | 3.46 µM (inactive) | 3.1 µM (inactive) | – | 5.46 µM (inactive) | 4.91 µM (inactive) | 2.08 µM (inactive) | –
9 | Cc1cccc2c(=O)c3c(O)cc(O)cc3n(C)c12 | > 100 µM (inactive) | > 100 µM (inactive) | > 100 µM (inactive) | > 100 µM (inactive) | > 100 µM (inactive) | > 100 µM (inactive) | > 100 µM (inactive) | > 100 µM (inactive) | > 100 µM (inactive) | > 100 µM (inactive) | > 100 µM (inactive) | > 100 µM (inactive) | > 100 µM (inactive) | > 100 µM (inactive) | > 100 µM (inactive) | – | > 100 µM (inactive) | – | > 100 µM (inactive) | > 100 µM (inactive)
10 | Clc1ccc(-c2c(C3=NCCN3)nnn2-c2ccc(Cl)cc2)cc1 | 22.6 µM (inactive) | – | 17.5 µM (inactive) | 53.1 µM (inactive) | 56 µM (inactive) | – | 11.4 µM (inactive) | 60.4 µM (inactive) | 35.2 µM (inactive) | 47.4 µM (inactive) | 33 µM (inactive) | – | 18.2 µM (inactive) | 71.4 µM (inactive) | 13.4 µM (inactive) | – | 19.7 µM (inactive) | 14.4 µM (inactive) | – | 25.1 µM (inactive)
11 | CCOC(=O)/C(=C/c1ccc(C(=O)OC)cc1)N(CC)CC | 30.6 µM (inactive) | – | 27.4 µM (inactive) | 51.6 µM (inactive) | > 100 µM (inactive) | – | 29.1 µM (inactive) | 35.1 µM (inactive) | 36.6 µM (inactive) | 48.2 µM (inactive) | > 100 µM (inactive) | – | 25.3 µM (inactive) | 70.8 µM (inactive) | 47.9 µM (inactive) | – | 71.6 µM (inactive) | 37.2 µM (inactive) | – | > 100 µM (inactive)
12 | CC1=C(C(=O)Nc2ccccc2C)C(c2ccccc2O)C(C(=O)Nc2ccccc2C)=C(C)N1 | 24.6 µM (inactive) | – | 21 µM (inactive) | 21.1 µM (inactive) | 17.6 µM (inactive) | – | 27.5 µM (inactive) | 23.8 µM (inactive) | 34.2 µM (inactive) | 22.2 µM (inactive) | 30.8 µM (inactive) | – | 17.3 µM (inactive) | 19.5 µM (inactive) | 12.3 µM (inactive) | – | 29.2 µM (inactive) | 16.8 µM (inactive) | – | 28 µM (inactive)
13 | CC#CC(OCC)(OCC)OCC | > 100 µM (inactive) | – | > 100 µM (inactive) | > 100 µM (inactive) | > 100 µM (inactive) | – | > 100 µM (inactive) | > 100 µM (inactive) | > 100 µM (inactive) | > 100 µM (inactive) | > 100 µM (inactive) | – | > 100 µM (inactive) | > 100 µM (inactive) | > 100 µM (inactive) | – | > 100 µM (inactive) | > 100 µM (inactive) | – | > 100 µM (inactive)
14 | C=CCOC1OC(CO[Si](C)(C)C(C)(C)C)C(OCc2ccccc2)C(OCc2ccccc2)C1OCc1ccccc1 (stereo not drawn) | > 100 µM (inactive) | 39.7 µM (inactive) | > 100 µM (inactive) | 21.7 µM (inactive) | 90.2 µM (inactive) | > 100 µM (inactive) | > 100 µM (inactive) | > 100 µM (inactive) | > 100 µM (inactive) | 39 µM (inactive) | > 100 µM (inactive) | 58.9 µM (inactive) | – | 71.8 µM (inactive) | > 100 µM (inactive) | 35.6 µM (inactive) | > 100 µM (inactive) | 46.1 µM (inactive) | – | > 100 µM (inactive)
15 | CC1(C)CN(CC(=O)O)CC(Cc2ccc(OCC(=O)O)cc2)N(CC(=O)O)CC(C)(C)SS1 (stereo not drawn) | – | > 100 µM (inactive) | – | > 100 µM (inactive) | > 100 µM (inactive) | > 100 µM (inactive) | > 100 µM (inactive) | > 100 µM (inactive) | > 100 µM (inactive) | > 100 µM (inactive) | > 100 µM (inactive) | > 100 µM (inactive) | > 100 µM (inactive) | > 100 µM (inactive) | – | – | > 100 µM (inactive) | > 100 µM (inactive) | > 100 µM (inactive) | > 100 µM (inactive)
